Experimental data from patent US20210063420A1, “Human Neural Organoid Platform for Detecting Drugs of Abuse Disorder Susceptibility and Therapeutic Countermeasure and Non-Addictive Pain Medication Development” (Rene Anand, priority 2019, published 2021).

Tested on: human iPSC-derived brain organoids
Description: All cpm data are normalized data and the reads are a direct representation of the abundance of the RNA for each gene.
Transcriptomic data from these neural organoids were obtained. […] Detailed data analysis using Gene Card and Pubmed data bases were performed.

CN1CCCC1c1cccnc1 (stereo not drawn) [nicotine]
expression of a set of genes for proteins involved in the development of midbrain dopaminergic neurons (VTA and SNpc) (chronic nicotine exposure of human iPSC-derived brain organoids): increases the expression
change in gene expression versus 0 (control) (exposure for 4 weeks to nicotine at 50 nanomolar, 500 nanomolar and 1 micromolar in the growth media, identified responsive genes): greater than 1.4 fold
expression of a subset of genes (Nurr 1, Lmx1a, Lmx1b, Neurog2, OTX2, Nolz1, NDNF) (human neural organoids, preliminary data): upregulated
